Source: US11517581B2, “Zika virus protease inhibitors and methods of use thereof” (priority 2017, dated 2022)
≈ marks a conversion by molar mass, not a printed value. Entries after “also recorded” stand apart in the source; their conditions may differ.

What was measured:
ZIKV [1] = assay: Dexamethasone-immunosuppressed mouse model of disseminated ZIKV infection; format: in vivo, BALB/c mice
Method: Approval was obtained from the Committee on the Use of Live Animals in Teaching and Research of The University of Hong Kong. […] Phosphate-buffered saline (PBS) was used to dilute the virus stocks to the desired concentration, and inocula were back-titrated to verify the dose given. On the day of virus inoculation, a dose of the virus equivalent to 6×10^6 TCID50 (3.24×10^6 plaque forming units) in […] of PBS was inoculated via the intraperitoneal route into mice under ketamine (100 mg/kg) and xylazine (10 mg/kg) anesthesia. Mice in the negative-control groups were injected with the same volume of PBS. Mice were monitored three times each day for clinical signs of disease and a numerical score was assigned at each observation as previously described (Chan et al., 2016c). Three mice per group were sacrificed at 5 dpi for virological, histological, and immunohistochemistry analyses. The remaining mice were sacrificed at 14 dpi or euthanized when there was ≥20% weight loss or ≥10% weight loss with ≥1 clinical sign. Samples of major organs were collected at necropsy for virological, histological, and immunohistochemical analyzes as we previously described (Chan et al., 2016c. Chan et al., 2017b). Blood samples were also collected for RNA extraction and qRT-PCR analysis.

[2] = system: ZIKV (Puerto Rico strain PRVABC59); assay: Viral load reduction assay (qRT-PCR) in Vero cells; format: cell-based, Zika virus
Method: Viral load reduction assay and plaque reduction assay was performed for the evaluation of antiviral activity. Briefly, ZIKV-infected Vero cells (MOI=0.05) were treated with different concentrations of drugs or dimethyl sulfoxide (DMSO) control, cell culture supernatants (Vero and Huh-7) were collected at 48 hours post-infection, followed by total nucleic acid extraction and quantitative reverse transcription-PCR (qRT-PCR) as previously described with modifications (Chan et al., 2013; Chan et al., 2016b; Chan et al., 2017a). The IC50 was calculated using Sigma plot (SPSS) in an Excel add-in ED50V10. The viral load reduction assay experiments were performed in triplicate and repeated twice for confirmation.

[3] = system: ZIKV (Puerto Rico strain PRVABC59) in BALB/c mice; assay: In vivo treatment of dexamethasone-immunosuppressed mice with disseminated ZIKV infection; parameters: species or system mouse (BALB/c); Zika virus; settings: 100 mg/kg q12 h sc
Method: Phosphate-buffered saline (PBS) was used to dilute the virus stocks to the desired concentration, and inocula were back-titrated to verify the dose given. On the day of virus inoculation, a dose of the virus equivalent to 6×10^6 TCID50 (3.24×10^6 plaque forming units) in 2000 of PBS was inoculated via the intraperitoneal route into mice under ketamine (100 mg/kg) and xylazine (10 mg/kg) anesthesia. Mice in the negative-control groups were injected with the same volume of PBS. Mice were monitored three times each day for clinical signs of disease and a numerical score was assigned at each observation as previously described (Chan et al., 2016c). Three mice per group were sacrificed at 5 dpi for virological, histological, and immunohistochemistry analyses. The remaining mice were sacrificed at 14 dpi or euthanized when there was ≥20% weight loss or ≥10% weight loss with ≥1 clinical sign. Samples of major organs were collected at necropsy for virological, histological, and immunohistochemical analyzes as we previously described (Chan et al., 2016c. Chan et al., 2017b). Blood samples were also collected for RNA extraction and qRT-PCR analysis.
For immunohistochemical analysis, each organ was entirely embedded in one paraffin block, and one full-face paraffin section at the maximum diameter of each organ was examined per block.

ZIKV NS2B-NS3 protease = ZIKV NS2B-NS3 protease (Zika virus, UniProt A0A024B7W1, DEL1468-1502); format: biochemical; settings: 10 μM substrate, 5 nM protease
ZIKV [4] = assay: MTT-based CPE inhibition assay in Vero cells; format: cell-based; settings: Zika virus, 144 h, MOI 0.0002, 6 days
Method: Briefly, Vero or Huh-7 cells (4×10^4 cells/well) were incubated with different concentrations of individual drug for 24 h, followed by the addition of 10 μl/well of 5 mg/ml MTT substrate. The monolayers were incubated as above for 4 h (away from light). Finally, 100 μl of 10% sodium dodecyl sulfate (SDS) with 0.01M HCl was added and further incubated at 37° C. with 5% CO2 overnight. […] Briefly, the drug compounds were diluted with serum-free MEM and added to confluent Vero cells in 96-well culture plates (4×10^4 cells/well) in triplicate for 2 h at 37° C. After incubation, the drug-containing media were removed, and ZIKV (multiplicity of infection, MOI=0.0002) was added together with fresh drug-compound media to each well. Following 1 h of adsorption at 37° C., the virus-compound mixture was removed and the cells were washed twice with MEM to remove unbound virus. Subsequently, media with antiviral compounds were added to the cells for further incubation for 6 days at 37° C. in a 5% CO2 humidified environment. CPE was examined by inverted light microscopy (Chan et al., 2016b). Thereafter, MTT substrate and SDS-HCl were added sequentially as mentioned above. The half maximal inhibitory concentration (IC50) and CC50 were calculated using Sigma plot (SPSS) in an Excel add-in ED50V10.

[5] = system: ZIKV (Puerto Rico strain PRVABC59) in Vero cells; assay: Viral load reduction assay, Vero cells; format: cell-based, Zika virus; settings: culture supernatants
Method: (§1) A clinical isolate of ZIKV (Puerto Rico strain PRVABC59) obtained from a patient in the recent South American epidemic was kindly provided by Brandy Russell and Barbara Johnson, Centers for Disease Control and Prevention, USA. The virus was cultured and titrated as we previously described with slight modifications (Chan et al., 2016b; Zhou et al., 2014). The virus was amplified by three additional passages in Vero cells (ATCC) in minimum essential medium (MEM) supplemented with 1% fetal bovine serum (FBS, Gibco™, Life Technologies Corporation, Massachusetts, USA) and 100 units/ml penicillin plus 100 μg/ml streptomycin to make working stocks of the virus (4×10^6 50% tissue culture infectious dose (TCID50)/ml). For virus titration, aliquots of ZIKV were applied on confluent Vero cells in 96-well plates for the TCID50 assay as was previously described with slight modifications (Chan et al., 2016b; Zhou et al., 2014). Briefly, serial 10-fold dilutions of ZIKV were inoculated in a Vero cell monolayer in quadruplicate and cultured in penicillin/streptomycin-supplemented MEM and 1% FBS. […] Viral titer was calculated using the Reed and Munch endpoint method. One TCID50 was interpreted as the amount of virus that causes cytopathic effect in 50% of inoculated wells.

[6] = system: ZIKV (Puerto Rico strain PRVABC59); assay: Viral load reduction assay (qRT-PCR) in Huh-7 cells; format: cell-based; settings: Zika virus, 0.05 MOI, 48 hours post-infection, supernatant qRT-PCR
Method: as §1

ZIKV [7] = assay: Plaque reduction assay in Vero cells; format: cell-based, Zika virus
Method: Plaque reduction assay was performed as we previously described with slight modifications (Chan et al., 2017a). Briefly, Vero cells were seeded at 2×10^5 cells/well in 24-well tissue culture plates on the day before carrying out the assay. After 24 h of incubation, 20-40 plaque-forming units (PFU) of ZIKV were added to the cell monolayer with or without the addition of drug compounds and the plates were further incubated for 1 h at 37° C. in 5% CO2 before removal of unbound viral particles by aspiration of the media and washing once with MEM. Monolayers were then overlaid with media containing 1% low melting agarose (Cambrex Corporation, New Jersey, USA) in MEM and appropriate concentrations of drug compounds, inverted and incubated as above for another 96 h. The wells were then fixed with 10% formaldehyde (BDH, Merck, Darmstadt, Germany) overnight. After removal of the agarose plugs, the monolayers were stained with 0.7% crystal violet (BDH, Merck) and the plaques were counted. The percentage of plaque inhibition relative to the control (i.e. without the addition of compound) wells were determined for each drug compound concentration.

Sequence of ZIKV NS2B-NS3 protease (A0A024B7W1 1502-1672, added parts left off, stated change not applied): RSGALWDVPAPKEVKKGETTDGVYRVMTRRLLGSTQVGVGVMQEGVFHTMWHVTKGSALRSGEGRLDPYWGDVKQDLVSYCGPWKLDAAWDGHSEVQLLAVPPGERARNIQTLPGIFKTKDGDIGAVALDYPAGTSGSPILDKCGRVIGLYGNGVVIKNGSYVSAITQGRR

## CO[C@@H]1[C@@H](OC(N)=O)[C@@H](O)[C@H](Oc2ccc3c(O)c(NC(=O)c4ccc(O)c(CC=C(C)C)c4)c(=O)oc3c2C)OC1(C)C [Novobiocin]
ZIKV [1]; 100 mg/kg q12 h sc 1-13 dpi, vs 0% untreated control mice, P<0.05
  Survival: 100%
ZIKV [1]; 5 dpi
  ZIKV-NS1 antigen expression in organ tissues (immunohistochemical staining): minimal; also recorded: rarely detected
ZIKV [1]; 5 dpi and 14 dpi, incl. testis and kidney
  Mean viral loads in the blood and the major organ tissues: significantly reduced
ZIKV [1]; ZIKV-inoculated, 100 mg/kg q12 h sc
  Weight loss after dexamethasone withdrawal: ≤ 8%
ZIKV [1]; ZIKV-inoculated, 100 mg/kg q12 h sc, recovered at 13-14 dpi
  Clinical symptoms after dexamethasone withdrawal: minimal clinical symptoms
ZIKV [1]; after dexamethasone withdrawal, 12 or 14 dpi
  Inflammatory infiltrates in organ tissues (H&E): little inflammatory infiltrate; also recorded: no or mild inflammatory infiltrate, and preserved tissue architecture; also recorded: minimal inflammatory infiltrates
ZIKV [1]; at both 5 dpi and 14 dpi, qRT-PCR normalized by β-actin
  Reduction of mean viral loads in blood and most major organ tissues vs untreated control mice: ≥ 2 log
[2]; Zika virus, Vero, 48 h, read-out: IC50, viral load reduction assay
  IC50: 26.1 ± 0.33 mg/L (≈ 42.6 µM)
[2]; viral load reduction assay
  Concentration at which mean virus titer was significantly reduced (P<0.05): ≥ 25.00 µg/mL
[3]; 5 dpi
  ZIKV NS1 antigen expression in organ tissues (brain, testis, kidney): minimal ZIKV NS1 antigen expression
[3]; ZIKV-inoculated and mock-infected mice with novobiocin
  Inflammatory infiltrate in brain, testis and kidney: no or mild inflammatory infiltrate
ZIKV NS2B-NS3 protease
  Effect of increasing drug concentrations on protease activity: dose-dependent reduction in protease activity
ZIKV [4]
  IC50: 53.3 ± 2.48 mg/L (≈ 86.9 µM)
[5]
  Reduction in virus titer: dose-dependent reduction in virus titer
[6]
  IC50: 38.1 ± 4.53 mg/L (≈ 62.3 µM)
ZIKV [7]; Zika virus, Vero cells
  IC50: 15.21 ± 0.14 mg/L (≈ 24.8 µM)
ZIKV [7]; at concentrations ≥50.00 μg/ml
  Plaque reduction: 100%
